The test system of this assay is CD2F1 mice, ip Colon 26 adenocarcinoma, median survival T/C. The experiment in a line: NCI In Vivo Anticancer Drug Screen. Data for tumor model Colon 26 Adenocarcinoma (intraperitoneal) in CD2F1 (CDF1) mice. The settings on record: endpoint: median survival time, higher = longer survival. As for the experimental part:
The antitumor activity of compounds was measured in mice bearing transplantable tumors. Survival or tumor size were measured and the results are expressed as the measurement made in the treated group (T) divided by the measurement made in the vehicle treated control group (C). The tumor model used in this assay is Colon 26 Adenocarcinoma (intraperitoneal) in CD2F1 (CDF1) mice

[1] abbreviates: dose: 12.5 mg/kg/injection, schedule: Q04DX003 (ip), vehicle: Klucel (hydroxypropylcellulose) (HPC).
[2] abbreviates: dose: 25.0 mg/kg/injection, schedule: Q04DX003 (ip), vehicle: Klucel (hydroxypropylcellulose) (HPC).
Setting [3] is: dose: 50.0 mg/kg/injection, schedule: Q04DX003 (ip), vehicle: Klucel (hydroxypropylcellulose) (HPC).
[4] abbreviates: dose: 100.0 mg/kg/injection, schedule: Q04DX003 (ip), vehicle: Klucel (hydroxypropylcellulose) (HPC).
[5] abbreviates: dose: 200.0 mg/kg/injection, schedule: Q04DX003 (ip), vehicle: Klucel (hydroxypropylcellulose) (HPC).

Several values for one entry are separate records, joined by “and”; a condition that tells them apart may be missing. Identical values can stand only once. Toxic doses and inconclusive results are not listed.

Among the data in PubChem BioAssay AID210 (DTP/NCI, 2004) are T/C values, retold here.

On to `CN(Cc1cnc2nc(N)nc(N)c2n1)c1c(Cl)cc(C(=O)NC(CCC(=O)O)C(=O)O)cc1Cl` (centres undefined), for which the T/C was 105 % of control under setting [1]; 102 % of control under setting [2]; 104 % of control under setting [3]; 104 % of control under setting [4]; 118 % of control under setting [5].
For the compound `CCc1ncnc2cc(OCC3CO3)c(OC)cc12` (centres undefined), the T/C was 90 % of control (dose: 25.0 mg/kg/injection, schedule: Q03DX002 (iv), vehicle: saline); 97 % of control (dose: 40.0 mg/kg/injection, schedule: Q03DX002 (ip), vehicle: saline); 86 % of control (dose: 40.0 mg/kg/injection, schedule: Q03DX002 (sc), vehicle: saline); 114 % of control (dose: 60.0 mg/kg/injection, schedule: Q03DX002 (ip), vehicle: saline); 95 % of control (dose: 60.0 mg/kg/injection, schedule: Q03DX002 (iv), vehicle: saline); 86 % of control (dose: 60.0 mg/kg/injection, schedule: Q03DX002 (sc), vehicle: saline).
Regarding `C[C@]1(O)CC[C@H]2[C@@H]3CCC4=CC(=O)CC[C@]4(C)[C@@]3(F)[C@@H](O)C[C@@]21C`, the T/C reads like this: under setting [2], 94 % of control; under setting [3], 105 % of control; under setting [4], 108 % of control; under setting [5], 99 % of control; (dose: 400.0 mg/kg/injection, schedule: Q04DX003 (ip), vehicle: Klucel (hydroxypropylcellulose) (HPC)) 97 % of control.
Consider `CN(C1=NS(=O)(=O)N=C(N(C)c2ccccc2)O1)c1ccccc1`, for which the T/C was 96 % of control under setting [1], 89 % of control under setting [2], 95 % of control under setting [3] and 90 % of control under setting [5].
As for `O=C(N/N=C\c1cc(Br)cc(Br)c1O)N/N=C/c1cc(Br)cc(Br)c1O`, the T/C is 118 % of control (dose: 25.0 mg/kg/injection, schedule: Q04DX003 (ip), vehicle: saline with Tween-80); 102 % of control (dose: 50.0 mg/kg/injection, schedule: Q04DX003 (ip), vehicle: saline with Tween-80); 102 % of control (dose: 100.0 mg/kg/injection, schedule: Q04DX003 (ip), vehicle: saline with Tween-80); 123 % of control (dose: 200.0 mg/kg/injection, schedule: Q04DX003 (ip), vehicle: saline with Tween-80).
Consider `O=C1c2ccccc2C(=O)c2c(NCCNCCO)ccc(NCCNCCO)c21`, for which the T/C runs as follows: (dose: 2.0 mg/kg/injection, schedule: Q01DX009 (ip), vehicle: saline) 191 % of control; (dose: 2.5 mg/kg/injection, schedule: Q01DX009 (ip), vehicle: saline) 200 % of control and 223 % of control; (dose: 2.62 mg/kg/injection, schedule: Q01DX009 (ip), vehicle: saline) 172 % of control; (dose: 3.89 mg/kg/injection, schedule: Q01DX009 (ip), vehicle: saline) 209 % of control; (dose: 3.89 mg/kg/injection, schedule: Q01DX009 (sc), vehicle: saline) 104 % of control; (dose: 4.0 mg/kg/injection, schedule: Q01DX009 (ip), vehicle: acid diluted with saline) 182 % of control. For the same compound, the T/C is, setting by setting: (dose: 4.0 mg/kg/injection, schedule: Q01DX009 (ip), vehicle: saline) 226 % of control; (dose: 5.0 mg/kg/injection, schedule: Q01DX009 (ip), vehicle: saline) 193 % of control and 223 % of control; (dose: 5.25 mg/kg/injection, schedule: Q01DX009 (ip), vehicle: saline) 213 % of control; (dose: 6.22 mg/kg/injection, schedule: Q04DX003 (iv), vehicle: saline) 110 % of control; (dose: 6.48 mg/kg/injection, schedule: Q01DX009 (ip), vehicle: saline) 209 % of control; (dose: 6.48 mg/kg/injection, schedule: Q01DX009 (sc), vehicle: saline) 104 % of control. For the same compound, the T/C (dose: 7.78 mg/kg/injection, schedule: Q01DX001 (iv), vehicle: saline) is 104 % of control; the T/C (dose: 8.0 mg/kg/injection, schedule: Q01DX009 (ip), vehicle: acid diluted with saline) is 219 % of control; the T/C (dose: 8.0 mg/kg/injection, schedule: Q01DX009 (ip), vehicle: saline) was 236 % of control; the T/C (dose: 8.0 mg/kg/injection, schedule: Q04DX003 (ip), vehicle: Klucel (hydroxypropylcellulose) (HPC)) was 168 % of control; the T/C (dose: 8.0 mg/kg/injection, schedule: Q04DX003 (ip), vehicle: water) is 121 % of control and 209 % of control; the T/C (dose: 10.0 mg/kg/injection, schedule: Q01DX009 (ip), vehicle: saline) is 212 % of control and 267 % of control. Further, the T/C reads like this: (dose: 10.4 mg/kg/injection, schedule: Q04DX003 (iv), vehicle: saline) 106 % of control; (dose: 10.5 mg/kg/injection, schedule: Q01DX009 (ip), vehicle: saline) 294 % of control; (dose: 10.8 mg/kg/injection, schedule: Q01DX009 (ip), vehicle: saline) 182 % of control; (dose: 10.8 mg/kg/injection, schedule: Q01DX009 (sc), vehicle: saline) 105 % of control; (dose: 13.0 mg/kg/injection, schedule: Q01DX001 (iv), vehicle: saline) 116 % of control; (dose: 16.0 mg/kg/injection, schedule: Q01DX009 (ip), vehicle: acid diluted with saline) 219 % of control. Further, the T/C was 305 % of control (dose: 16.0 mg/kg/injection, schedule: Q01DX009 (ip), vehicle: saline); 200 % of control and 170 % of control and 220 % of control (dose: 16.0 mg/kg/injection, schedule: Q04DX003 (ip), vehicle: Klucel (hydroxypropylcellulose) (HPC)); 188 % of control and 287 % of control (dose: 16.0 mg/kg/injection, schedule: Q04DX003 (ip), vehicle: water); 189 % of control (dose: 17.3 mg/kg/injection, schedule: Q04DX003 (ip), vehicle: saline); 101 % of control (dose: 17.3 mg/kg/injection, schedule: Q04DX003 (iv), vehicle: saline); 182 % of control (dose: 18.0 mg/kg/injection, schedule: Q01DX009 (ip), vehicle: saline). The T/C was 99 % of control (dose: 18.0 mg/kg/injection, schedule: Q01DX009 (sc), vehicle: saline); 193 % of control (dose: 20.0 mg/kg/injection, schedule: Q01DX009 (ip), vehicle: saline); 268 % of control (dose: 21.0 mg/kg/injection, schedule: Q01DX009 (ip), vehicle: saline); 100 % of control (dose: 21.6 mg/kg/injection, schedule: Q01DX001 (iv), vehicle: saline); 104 % of control (dose: 25.0 mg/kg/injection, schedule: Q07DX003 (iv), vehicle: Klucel (hydroxypropylcellulose) (HPC)); 150 % of control (dose: 28.8 mg/kg/injection, schedule: Q04DX003 (ip), vehicle: saline). Moreover, the T/C runs as follows: (dose: 28.8 mg/kg/injection, schedule: Q04DX003 (iv), vehicle: saline) 101 % of control; (dose: 30.0 mg/kg/injection, schedule: Q01DX009 (sc), vehicle: saline) 90 % of control; (dose: 32.0 mg/kg/injection, schedule: Q01DX009 (ip), vehicle: acid diluted with saline) 274 % of control; (dose: 32.0 mg/kg/injection, schedule: Q04DX003 (ip), vehicle: Klucel (hydroxypropylcellulose) (HPC)) 162 % of control and 182 % of control; (dose: 32.0 mg/kg/injection, schedule: Q04DX003 (ip), vehicle: water) 159 % of control and 287 % of control; (dose: 36.0 mg/kg/injection, schedule: Q01DX001 (iv), vehicle: saline) 109 % of control. Moreover, the T/C (dose: 42.0 mg/kg/injection, schedule: Q01DX009 (ip), vehicle: saline) is 268 % of control; the T/C (dose: 48.0 mg/kg/injection, schedule: Q04DX003 (ip), vehicle: saline) was 161 % of control; the T/C (dose: 48.0 mg/kg/injection, schedule: Q04DX003 (iv), vehicle: saline) is 108 % of control; the T/C (dose: 50.0 mg/kg/injection, schedule: Q07DX003 (iv), vehicle: Klucel (hydroxypropylcellulose) (HPC)) was 108 % of control; the T/C (dose: 60.0 mg/kg/injection, schedule: Q01DX001 (iv), vehicle: saline) is 105 % of control; the T/C (dose: 64.0 mg/kg/injection, schedule: Q04DX003 (ip), vehicle: Klucel (hydroxypropylcellulose) (HPC)) is 163 % of control and 173 % of control. Besides, the T/C is 177 % of control and 209 % of control (dose: 64.0 mg/kg/injection, schedule: Q04DX003 (ip), vehicle: water); 165 % of control (dose: 80.0 mg/kg/injection, schedule: Q04DX003 (ip), vehicle: saline).
